Reference: paper PMC9282638, “A Suite of Activity-Based Probes To Dissect the KLK Activome in Drug-Resistant Prostate Cancer” (Journal of the American Chemical Society, 2021)

Key:
[1] = system: KLK activome (KLK2, KLK3, KLK14) in LNCaP-K14 cells; test: Residual KLK activity in conditioned media of bABP-treated LNCaP-K14 cells, read out with fABP cocktail; assay type: cell-based, human; conditions: 1 μM bABP co-incubated with 10 nM DHT and 200 nM Dox for 48 h
Text: The data presented above provide evidence that KLK activity in PCa is regulated by the AR at a level beyond simple changes in expression and raise the possibility that KLK activities may be actionable targets for therapeutic intervention at different disease stages, in particular during PCa metastasis to bone. However, KLKs are predicted to form complex proteolytic networks and it is often not clear which protease(s) should be inhibited for maximum phenotypic response in a particular disease setting. […] To enable dissection of the PCa KLK activome directly in LNCaP cells, we further expanded the KLK probe toolbox by synthesizing KLK2_fABP (42) and KLK14_fABP (43) (Figure 6A and Figure S2), fluorescent ABP (fABP) analogues of KLK2_bABP and KLK14_bABP bearing dyes fluorescing at discrete wavelengths, which retain excellent potency and selectivity for KLK2 and KLK14, respectively (Figure S25). KLK2_fABP and KLK14_fABP were combined with KLK3-selective fABP 21 (KLK3_fABP) in an “fABP cocktail” to a final concentration of 1 μM each and incubated for 20 min with CM obtained from LNCaP-WT, LNCaP-mK14, or LNCaP-K14 cells following 48 h treatment with 10 nM DHT to enable simultaneous multicolor readout of KLK2, KLK3, and KLK14 activity. […] However, upon Dox-induced KLK14 expression in DHT-treated LNCaP-K14 cells a significant increase in the activity of all three KLKs was evident (see Figure 6B and Figure S26 for gel quantification). […] Residual KLK activity in CM was then assessed using the fABP cocktail (Figure 6B).
Figure 6 Dissecting the KLK activome in LNCaP cells. […] (B) KLK activity profiling by in-gel fluorescence of conditioned media obtained from LNCaP-WT, LNCaP-mK14, and LNCaP-K14 cells following treatment with DHT (10 nM), Dox (100 ng/mL), and the appropriate biotinylated ABP using fluorescent ABPs 20, 42 and 43. See Figure S26 for blot and gel quantification. […] Cultures were incubated for a further 24 h before the number of migrating cells was quantified.

[2] = system: LNCaP-K14 cells; test: Transwell cell migration assay; assay type: cell-based, human; conditions: 1 μM ABP, 24 h; KLK14 expression induced with Dox, 10 nM DHT
Description: Figure 6 Dissecting the KLK activome in LNCaP cells. (A) Structures of fluorescent ABPs 42, 20, and 43 for KLK2, KLK3, and KLK14, respectively. (B) KLK activity profiling by in-gel fluorescence of conditioned media obtained from LNCaP-WT, LNCaP-mK14, and LNCaP-K14 cells following treatment with DHT (10 nM), Dox (100 ng/mL), and the appropriate biotinylated ABP using fluorescent ABPs 20, 42 and 43. See Figure S26 for blot and gel quantification. (C) Assessment of KLK activity inhibition on LNCaP cell migration. LNCaP-K14 cells were cultured in serum-free RPMI media supplemented with 10 nM DHT ± Dox (100 ng/mL) for 24 h. Cells were added to transwell inserts (100 000 cells in 100 μL of serum-free RPMI), and after 4 h the appropriate ABP was added. Cultures were incubated for a further 24 h before the number of migrating cells was quantified. […]
each library member was 50 μM and the total reaction volume was 50 μL. The excitation wavelength was 355 nm, and the emission wavelength was 460 nm. An amount of 1 μL of each HyCoSuL peptide was added into a well in a 96-well plate containing 24 μL of KLK buffer.
Next, 25 μL of the active KLK enzyme was added to each well and substrate hydrolysis was recorded in kinetic mode at RT for at least 10 min. The linear portion of each progress curve was used to calculate relative fluorescence units per second (RFUs-1). […] Specificity was calculated by normalizing RFUs-1 to the highest value, which was set at 100 %. […]
Determination of kcat/KM: The KLK2 substrate and KLK14 substrate were serially diluted in the appropriate KLK assay buffer and 25 μL was added to the wells of a 96-well plate. Next, 25 μL of KLK2 (1.5 nM) or KLK14 (75 pM) was added to each well containing the substrate and the enzyme-substrate reaction was monitored for at least 10 min. The linear portion of each progress curve was used to calculate relative fluorescence units per second (RFUs-1).
KM, kcat, and kcat/KM parameters were determined by nonlinear regression in GraphPad Prism 5 (GraphPad Software). […]

| Compound | effect on activity of the other KLKs [1] | effect on number of migrating cells [2] |
| --- | --- | --- |
| CCC[C@H](NC(=O)[C@H](CCC(N)=O)NC(=O)[C@H](CC(N)=O)NC(=O)CCCCCNC(=O)CCCC[C@@H]1SC[C@@H]2NC(=O)N[C@@H]21)C(=O)NC(c1ccc(C(N)=O)cc1)P(=O)(Oc1ccccc1)Oc1ccccc1 (stereo partly drawn) [compound 20] | does not affect the activity of other KLKs | no significant effect |
| CC(C)(C)C(NC(=O)CCCCCNC(=O)CCCCC1SCC2NC(=O)NC21)C(=O)NC(CCN)C(=O)NC(Cc1ccc(O)cc1)C(=O)NC(c1ccc(NC(=N)N)cc1)P(=O)(Oc1ccccc1)Oc1ccccc1 (stereo not drawn) [compound 31, Tle-Dab-Tyr-Arg] | does not affect the activity of other KLKs | no significant effect |
| CCC(NC(=O)C(CCN)NC(=O)C(Cc1ccc2ccccc2c1)NC(=O)CCCCCNC(=O)CCCCC1SCC2NC(=O)NC21)C(=O)NC(c1ccc(NC(=N)N)cc1)P(=O)(Oc1ccccc1)Oc1ccccc1 (stereo not drawn) [compound 39, 2Nal-Dab-Abu-Arg] | significant decrease | nullified |
